Experimental data as given in article PMC7154858, “Transcriptional and Biochemical Characterization of Cytosolic Pyruvate Kinases in Arabidopsis thaliana” (Plants, 2020).

Assays:
Test in all cases: LDH-coupled assay, single effector concentration
Format in all cases: biochemical
cPK1 [1] = target: T1, cPK1 (Arabidopsis thaliana, UniProt Q9FNN1); details: 2000 µM; saturating ADP and PEP; 10 mM MgCl2, pH 7.5, 25 °C; inhibitor (also reaction product)
T1 construct: gene MAH20.13; full-length cDNA in pET16b, N-terminal His tag (6x in Results, 5x in Methods), E. coli BLR21, Ni-NTA; primer begins MSNIDIEG
T1 sequence (Q9FNN1 1-510): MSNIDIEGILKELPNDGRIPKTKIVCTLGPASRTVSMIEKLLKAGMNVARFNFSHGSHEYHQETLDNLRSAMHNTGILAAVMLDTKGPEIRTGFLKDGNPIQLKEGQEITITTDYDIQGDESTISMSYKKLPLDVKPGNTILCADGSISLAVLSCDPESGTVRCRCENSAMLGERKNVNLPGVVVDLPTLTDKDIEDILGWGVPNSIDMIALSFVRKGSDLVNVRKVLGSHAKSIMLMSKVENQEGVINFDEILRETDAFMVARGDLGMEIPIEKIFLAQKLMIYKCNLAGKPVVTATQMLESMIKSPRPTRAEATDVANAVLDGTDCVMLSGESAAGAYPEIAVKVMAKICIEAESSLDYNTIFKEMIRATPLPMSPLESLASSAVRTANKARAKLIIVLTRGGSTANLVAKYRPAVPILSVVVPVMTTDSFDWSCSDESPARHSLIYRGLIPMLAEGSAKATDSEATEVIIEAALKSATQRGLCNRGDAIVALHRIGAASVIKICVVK

cPK2 [2] = target: T2, cPK2 (Arabidopsis thaliana, UniProt Q9FM97); details: 2000 µM; saturating ADP and PEP; 10 mM MgCl2, pH 7.5, 25 °C; inhibitor (also reaction product)
T2 construct: gene MCD7.8; full-length cDNA in pET16b, N-terminal His tag (6x in Results, 5x in Methods), E. coli BLR21, Ni-NTA; primer begins MAMIEQ
T2 sequence (Q9FM97 1-498): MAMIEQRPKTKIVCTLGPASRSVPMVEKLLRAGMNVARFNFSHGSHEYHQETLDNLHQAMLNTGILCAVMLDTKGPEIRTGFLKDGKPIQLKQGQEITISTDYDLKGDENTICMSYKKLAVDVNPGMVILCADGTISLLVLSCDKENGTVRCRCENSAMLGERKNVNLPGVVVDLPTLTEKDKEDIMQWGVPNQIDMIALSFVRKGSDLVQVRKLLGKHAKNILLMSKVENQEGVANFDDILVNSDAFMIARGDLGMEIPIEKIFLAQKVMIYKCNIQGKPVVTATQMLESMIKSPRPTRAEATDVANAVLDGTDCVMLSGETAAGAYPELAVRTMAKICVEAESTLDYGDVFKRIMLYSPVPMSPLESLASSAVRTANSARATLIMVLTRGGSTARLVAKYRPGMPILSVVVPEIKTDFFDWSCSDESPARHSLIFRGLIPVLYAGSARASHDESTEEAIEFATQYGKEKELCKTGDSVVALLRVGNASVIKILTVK

cPK3 [3] = target: T3, cPK3 (Arabidopsis thaliana, UniProt Q9FFP6); details: 2000 µM; saturating ADP and PEP; 10 mM MgCl2, pH 7.5, 25 °C; inhibitor (also reaction product)
T3 construct: gene MBK5.16; printed locus At5g56350 duplicates cPK2 (apparent misprint); primer begins MSNIDIE, unlike cPK2; full-length cDNA in pET16b, N-terminal His tag (6x/5x), E. coli BLR21, Ni-NTA
T3 sequence (Q9FFP6 1-510): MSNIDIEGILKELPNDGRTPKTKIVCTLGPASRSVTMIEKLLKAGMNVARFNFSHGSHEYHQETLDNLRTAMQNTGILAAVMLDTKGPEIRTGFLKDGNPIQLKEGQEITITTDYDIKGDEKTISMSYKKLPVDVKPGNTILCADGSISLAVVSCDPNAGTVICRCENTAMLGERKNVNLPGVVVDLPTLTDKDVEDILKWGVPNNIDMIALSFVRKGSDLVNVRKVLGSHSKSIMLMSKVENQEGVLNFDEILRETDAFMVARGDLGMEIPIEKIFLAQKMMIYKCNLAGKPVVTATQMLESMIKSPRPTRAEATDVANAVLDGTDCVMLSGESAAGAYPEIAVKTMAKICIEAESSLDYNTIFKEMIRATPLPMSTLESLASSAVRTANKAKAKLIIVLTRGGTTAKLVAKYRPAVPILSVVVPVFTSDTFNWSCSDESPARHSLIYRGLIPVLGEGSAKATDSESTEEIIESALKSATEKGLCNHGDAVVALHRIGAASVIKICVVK

cPK4 = target: T4, cPK4 (Arabidopsis thaliana, UniProt Q9SJQ0); details: 4000 µM; saturating ADP and PEP; 10 mM MgCl2, pH 7.5, 25 °C; allosteric inhibitor (stated)
T4 construct: gene At2g36580; full-length cDNA in pET16b, N-terminal His tag (6x in Results, 5x in Methods), E. coli BLR21, Ni-NTA; primer begins MHSSHL
T4 sequence (Q9SJQ0 1-527): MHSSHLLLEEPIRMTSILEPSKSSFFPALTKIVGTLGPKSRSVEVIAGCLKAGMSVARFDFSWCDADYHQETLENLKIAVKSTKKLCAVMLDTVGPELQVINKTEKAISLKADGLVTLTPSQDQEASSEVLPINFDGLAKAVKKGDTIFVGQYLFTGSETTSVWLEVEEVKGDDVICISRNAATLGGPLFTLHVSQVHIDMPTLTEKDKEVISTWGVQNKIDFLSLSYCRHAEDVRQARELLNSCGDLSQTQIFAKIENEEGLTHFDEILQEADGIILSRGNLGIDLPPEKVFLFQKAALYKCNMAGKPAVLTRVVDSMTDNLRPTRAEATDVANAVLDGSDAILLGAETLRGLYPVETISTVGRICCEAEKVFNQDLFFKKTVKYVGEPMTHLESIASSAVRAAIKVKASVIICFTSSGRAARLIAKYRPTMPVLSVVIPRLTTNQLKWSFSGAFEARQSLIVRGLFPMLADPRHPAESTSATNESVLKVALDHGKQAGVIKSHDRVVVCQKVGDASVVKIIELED

cPK1 [4] = target: T1, cPK1; details: 4000 µM; saturating ADP and PEP; 10 mM MgCl2, pH 7.5, 25 °C; allosteric inhibitor (stated)
cPK5 = target: T5, cPK5 (Arabidopsis thaliana, UniProt F4J867); details: 4000 µM; saturating ADP and PEP; 10 mM MgCl2, pH 7.5, 25 °C; allosteric inhibitor (stated)
T5 construct: gene At3g52990; full-length cDNA in pET16b, N-terminal His tag (6x in Results, 5x in Methods), E. coli BLR21, Ni-NTA; primer begins MHSSHL
T5 sequence (F4J867 1-527): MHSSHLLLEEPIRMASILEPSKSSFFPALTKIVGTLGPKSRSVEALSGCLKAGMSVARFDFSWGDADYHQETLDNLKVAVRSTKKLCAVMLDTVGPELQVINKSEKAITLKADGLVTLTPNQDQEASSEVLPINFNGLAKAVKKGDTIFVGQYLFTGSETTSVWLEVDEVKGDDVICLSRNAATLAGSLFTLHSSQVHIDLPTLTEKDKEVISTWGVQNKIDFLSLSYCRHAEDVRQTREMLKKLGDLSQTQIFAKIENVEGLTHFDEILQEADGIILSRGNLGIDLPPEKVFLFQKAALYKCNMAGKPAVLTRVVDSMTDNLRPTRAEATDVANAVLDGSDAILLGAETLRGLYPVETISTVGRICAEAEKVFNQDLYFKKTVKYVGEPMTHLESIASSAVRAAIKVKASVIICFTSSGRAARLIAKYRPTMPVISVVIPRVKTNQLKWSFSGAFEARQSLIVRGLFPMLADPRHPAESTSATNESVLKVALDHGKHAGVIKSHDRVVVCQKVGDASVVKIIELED

cPK2 [5] = target: T2, cPK2; details: 4000 µM; saturating ADP and PEP; 10 mM MgCl2, pH 7.5, 25 °C; allosteric inhibitor (stated)
cPK3 [6] = target: T3, cPK3; details: 4000 µM; saturating ADP and PEP; 10 mM MgCl2, pH 7.5, 25 °C; allosteric inhibitor (stated)
cPK1 [7] = target: T1, cPK1; details: 1000 µM; saturating ADP and PEP; 10 mM MgCl2, pH 7.5, 25 °C; activator
cPK1 [8] = target: T1, cPK1; details: 200 µM; saturating ADP and PEP; 10 mM MgCl2, pH 7.5, 25 °C; inhibitor

Nc1ncnc2c1ncn2[C@@H]1O[C@H](COP(=O)(O)OP(=O)(O)OP(=O)(O)O)[C@@H](O)[C@H]1O [ATP]
ATP (cPK1 [1]): 7%
ATP (cPK2 [2]): 76%
ATP (cPK3 [3]): 27%

O=C(O)CC(O)(CC(=O)O)C(=O)O [citrate]
Citrate (cPK4): 3%
Citrate (cPK1 [4]): 17%
Citrate (cPK5): 2%
Citrate (cPK2 [5]): 26%
Citrate (cPK3 [6]): 7%

O=P(O)(O)OC[C@H]1OC(O)(COP(=O)(O)O)[C@@H](O)[C@@H]1O (stereo partly shown) [F1.6BP]
F1.6BP (cPK1 [7]): 122%

N[C@@H](CC(=O)O)C(=O)O [aspartate]
Aspartate (cPK1 [8]): 69%
